Target: T1, human CRHR2-alpha (Homo sapiens, UniProt Q13324)
T1 sequence (Q13324 1-411): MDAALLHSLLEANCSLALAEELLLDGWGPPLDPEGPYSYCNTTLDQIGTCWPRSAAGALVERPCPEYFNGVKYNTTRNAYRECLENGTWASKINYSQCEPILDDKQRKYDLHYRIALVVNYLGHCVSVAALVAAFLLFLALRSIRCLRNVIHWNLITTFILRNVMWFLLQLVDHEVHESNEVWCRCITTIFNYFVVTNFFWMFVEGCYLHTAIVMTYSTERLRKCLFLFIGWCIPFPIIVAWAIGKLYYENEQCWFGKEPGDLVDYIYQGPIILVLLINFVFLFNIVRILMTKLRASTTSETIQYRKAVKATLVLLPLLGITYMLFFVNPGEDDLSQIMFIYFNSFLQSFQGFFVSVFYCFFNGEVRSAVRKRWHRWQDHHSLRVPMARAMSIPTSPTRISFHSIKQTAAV
Assay: cAMP functional assay for human CRHR2 (LANCE Ultra cAMP, TR-FRET)
Type: cell-based
Conditions: CHO-K1 cells expressing human CRHR2-alpha, agonist human urocortin2 at EC80, cAMP; read-out: IC50 against CRHR2
In short: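 CHO-K1 stable lines; 4,000 cells/well; compound 30 min, 25° C; EC80 agonist (human urocortin2 → CRHR2, CRF → CRHR1) 30 min, 25° C; buffer HBSS/0.1% BSA/0.5 mM IBMX/5 mM Hepes pH 7.4; Eu-cAMP tracer + ULight antibody 60 min; TR-FRET read; IC50 from % inhibition curves.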

SMILES | IC50
Cc1ncc(Cl)cc1C(=O)N[C@H]1CC[C@H](Cn2c(=O)n(-c3ccc(OCCCO)nc3)c3ccccc32)CC1 [Example 134, 5-chloro-N-((1r,4r)-4-((3-(6-(3-hydroxypropoxy)pyridin-3-yl)-2-oxo-2,3-dihydro-1H-benzo[d]imidazol-1-yl)methyl)cyclohexyl)-2-methylnicotinamide] | < 300 nM
CNC(=O)c1ccc(-n2c(=O)n(C[C@H]3CC[C@H](NC(=O)c4cc(Cl)cnc4C)CC3)c3cccc(C)c32)cn1 [Example 192, 5-(3-(((1r,4r)-4-(5-chloro-2-methylnicotinamido)cyclo-hexyl)methyl)-7-methyl-2-oxo-2,3-dihydro-1H-benzo [d]imidazol-1-yl)-N-methylpicolinamide] | < 300 nM
O=C(N[C@H]1CC[C@H](Cn2c(=O)n(-c3ccncc3Cl)c3ccccc32)CC1)c1cc(Cl)cnc1C(F)(F)F [Example 334, 5-chloro-N-((1r,4r)-4-((3-(3-chloropyridin-4-yl)-2-oxo-2,3-dihydro-1H-benzo[d]imidazol-1-yl)methyl)cyclo-hexyl)-2-(trifluoromethyl) nicotinamide] | < 300 nM
Cc1ncc(Cl)cc1C(=O)N[C@H]1CC[C@H](Cn2c(=O)n(-c3ccc4ncsc4c3)c3ncccc32)CC1 [Example 200, N-((1r,4r)-4-((3-(benzo[d]thiazol-6-yl)-2-oxo-2,3-dihydro-1H-imidazo[4,5-b]pyridin-1-yl)methyl)cyclohexyl)-5-chloro-2-methylnicotinamide] | < 300 nM
CNC(=O)c1ccc(-n2c(=O)n(C[C@H]3CC[C@H](NC(=O)c4cc(Cl)cnc4C4CCC4)CC3)c3ccccc32)cn1 [Example 322, 5-(3-(((1r,4r)-4-(5-chloro-2-cyclobutylnicotinamido)cyclohexyl)methyl)-2-oxo-2,3-dihydro-1H-benzo[d]imidazol-1-yl)-N-methyl-picolinamide] | < 300 nM
Cc1ncc(Cl)cc1C(=O)N[C@H]1CC[C@H](Cn2c(=O)n(-c3ccc(N[C@@H]4CCOC4)nc3)c3ccccc32)CC1 [Example 107, 5-chloro-2-methyl-N-((1R,4R)-4-((2-oxo-3-(6-(((R)-tetrahydro-furan-3-yl)amino)pyridin-3-yl)-2,3-dihydro-1H-benzo[d]imidazol-1-yl)methyl)cyclohexyl) nicotinamide] | < 300 nM
Cc1ncc(Cl)cc1C(=O)N[C@H]1CC[C@H](Cn2c(=O)n(-c3ccc4nccnc4c3)c3ccccc32)CC1 [Example 165, 5-chloro-2-methyl-N-((1r,4r)-4-((2-oxo-3-(quinoxalin-6-yl)-2,3-dihydro-1H-benzo[d]imidazol-1-yl)methyl)cyclo-hexyl)nicotinamide] | < 300 nM
COc1ccccc1C(=O)Cn1c(=O)n(C[C@H]2CC[C@H](NC(=O)c3cc(Cl)cnc3C)CC2)c2ccccc21 [Example 10, 5-chloro-N-((1r,4r)-4-((3-(2-(2-methoxyphenyl)-2-oxoethyl)-2-oxo-2,3-dihydro-1H-benzo[d]imidazol-1-yl)methyl)cyclohexyl)-2-methylnicotinamide] | < 300 nM
Cc1ncc(Cl)cc1C(=O)N[C@H]1CC[C@H](Cn2c(=O)n(-c3ccc(C(=O)NCc4ccon4)nc3)c3ccccc32)CC1 [Example 176, 5-(3-(((1r,4r)-4-(5-chloro-2-methylnicotinamido)cyclo-hexyl)methyl)-2-oxo-2,3-dihydro-1H-benzo[d]imidazol-1-yl)-N-(isoxazol-3-ylmethyl) picolinamide] | < 300 nM
Cc1ncc(Cl)cc1C(=O)N[C@H]1CC[C@H](Cn2c(=O)n(-c3ccc4c(c3)ncn4C)c3ccccc32)CC1 [Example 206, 5-chloro-2-methyl-N-((1r,4r)-4-((1′-methyl-2-oxo-1′H-[1,5′-bibenzo[d]imidazol]-3(2H)-yl)methyl)cyclohexyl)nico-tinamide] | < 300 nM

The next lines start with the values.

IC50 | SMILES
< 300 nM | COc1ccc(Cl)c(-n2c(=O)n(C[C@H]3CC[C@H](NC(=O)c4cc(Cl)cnc4C(F)F)CC3)c3cnccc32)c1 [Example 631, 5-chloro-N-((1r,4r)-4-((1-(2-chloro-5-methoxyphenyl)-2-oxo-1H-imidazo[4,5-c]pyridin-3(2H)-yl)methyl)cyclohexyl)-2-(difluoromethyl) nicotinamide]
< 300 nM | Cc1ncc(Cl)cc1C(=O)N[C@H]1CC[C@H](Cn2c(=O)n(-c3ccc(-c4cnco4)cn3)c3ccccc32)CC1 [Example 489, 5-chloro-2-methyl-N-((1r,4r)-4-((3-(5-(oxazol-5-yl)pyridin-2-yl)-2-oxo-2,3-dihydro-1H-benzo[d]imidazol-1-yl)methyl)cyclohexyl)nicotinamide]
< 300 nM | O=C(NCC(F)F)c1ccc(-n2c(=O)n(C[C@H]3CC[C@H](NC(=O)c4cc(Cl)cnc4C(F)(F)F)CC3)c3ccccc32)cn1 [Example 411, 5-(3-(((1r,4r)-4-(5-chloro-2-(trifluoromethyl)nicotinamido)cyclohexyl)methyl)-2-oxo-2,3-dihydro-1H-benzo[d]imidazol-1-yl)-N-(2,2-difluoroethyl) picolinamide]
< 300 nM | Cc1ncc(Cl)cc1C(=O)N[C@H]1CC[C@H](Cn2c(=O)n(-c3ccc(-c4cnn(C)c4)cc3)c3ccccc32)CC1 [Example 579, 5-chloro-2-methyl-N-((1r,4r)-4-((3-(4-(1-methyl-1H-pyrazol-4-yl)phenyl)-2-oxo-2,3-dihydro-1H-benzo[d]imidazol-1-yl)methyl)cyclo-hexyl)nicotinamide]
< 300 nM | Cc1ncc(Cl)cc1C(=O)N[C@H]1CC[C@H](Cn2c(=O)n(-c3ccc4cccnc4c3)c3ccccc32)CC1 [Example 395, 5-chloro-2-methyl-N-((1r,4r)-4-((2-oxo-3-(quinolin-7-yl)-2,3-dihydro-1H-benzo[d]imidazol-1-yl)methyl)cyclo-hexyl)nicotinamide]
< 300 nM | O=C(N[C@H]1CC[C@H](Cn2c(=O)n(-c3ccc4ncccc4c3)c3ccccc32)CC1)c1cc(Cl)cnc1C(F)F [Example 392, 5-chloro-2-(difluoromethyl)-N-((1r,4r)-4-((2-oxo-3-(quinolin-6-yl)-2,3-dihydro-1H-benzo[d]imidazol-1-yl)methyl)cyclohexyl)nicotinamide]
< 300 nM | O=C(N[C@H]1CC[C@H](Cn2c(=O)n(-c3ccc(N4CC[C@@H](O)C4)nc3)c3ccccc32)CC1)c1cc(Cl)cnc1C(F)F [Example 461, 5-chloro-2-(difluoromethyl)-N-((1R,4r)-4-((3-(6-((R)-3-hydroxypyrrolidin-1-yl)pyridin-3-yl)-2-oxo-2,3-dihydro-1H-benzo[d]imidazol-1-yl)methyl)cyclohexyl) nicotinamide]
< 300 nM | O=C(N[C@H]1CC[C@H](Cn2c(=O)n(-c3cnc4ncccc4c3)c3ccccc32)CC1)c1cc(Cl)cnc1C(F)F [Example 393, N-((1r,4r)-4-((3-(1,8-naph-thyridin-3-yl)-2-oxo-2,3-dihydro-1H-benzo[d]imidazol-1-yl)methyl)cyclohexyl)-5-chloro-2-(difluoromethyl) nicotinamide]
< 300 nM | Cc1c[nH]c2ncc(-n3c(=O)n(C[C@H]4CC[C@H](NC(=O)c5cc(Cl)cnc5C(F)(F)F)CC4)c4cccnc43)cc12 [Example 427, 5-chloro-N-((1r,4r)-4-((3-(3-methyl-1H-pyrrolo[2,3-b]pyridin-5-yl)-2-oxo-2,3-dihydro-1H-imidazo[4,5-b]pyridin-1-yl)methyl)cyclo-hexyl)-2-(trifluoromethyl) nicotinamide]
< 300 nM | O=C(N[C@H]1CC[C@H](Cn2c(=O)n(-c3ccc(-c4ncc[nH]4)cc3)c3ccccc32)CC1)c1cc(Cl)cnc1C(F)F [Example 743, N-((1r,4r)-4-((3-(4-(1H-imidazol-2-yl)phenyl)-2-oxo-2,3-dihydro-1H-benzo[d]imidazol-1-yl)methyl)cyclohexyl)-5-chloro-2-(difluoromethyl)nicotinamide]
< 300 nM | CNC(=O)c1ccc(-n2c(=O)n(C[C@H]3CC[C@H](NC(=O)c4cc(Cl)cnc4COC)CC3)c3ccccc32)cn1 [Example 335, 5-(3-(((1r,4r)-4-(5-chloro-2-(methoxymethyl)nico-tinamido)cyclohexyl)methyl)-2-oxo-2,3-dihydro-1H-benzo[d]imidazol-1-yl)-N-methylpicolinamide]
< 300 nM | COc1cncc(-n2c(=O)n(C[C@H]3CC[C@H](NC(=O)c4cc(Cl)cnc4C(F)F)CC3)c3ccccc32)c1 [Example 683, 5-chloro-2-(difluoromethyl)-N-((1r,4r)-4-((3-(5-methoxy-pyridin-3-yl)-2-oxo-2,3-dihydro-1H-benzo[d]imidazol-1-yl)methyl)cyclohexyl) nicotinamide]
< 300 nM | C[C@@H](O)COc1ccc(-n2c(=O)n(C[C@H]3CC[C@H](NC(=O)c4cc(Cl)cnc4C(F)F)CC3)c3ccccc32)cn1 [Example 439, 5-chloro-2-(difluoromethyl)-N-((1R,4r)-4-((3-(6-((R)-2-hydroxypropoxy)pyridin-3-yl)-2-oxo-2,3-dihydro-1H-benzo[d]imidazol-1-yl)methyl)cyclohexyl)nicotinamide]
< 300 nM | O=C(N[C@H]1CC[C@H](Cn2c(=O)n(-c3cccc(N4CCOCC4)c3)c3ccccc32)CC1)c1cc(Cl)cnc1C(F)F [Example 566, 5-chloro-2-(difluoromethyl)-N-((1r,4r)-4-((3-(3-morpholinophenyl)-2-oxo-2,3-dihydro-1H-benzo[d]imidazol-1-yl)methyl)cyclo-hexyl)nicotinamide]

From patent US11802120B2, “Fused cyclic urea derivatives as CRHR2 antagonist” (RaQualia Pharma Inc., priority 2018, dated 2023)
